Where “and” joins values, the source holds several entries; their conditions need not be identical. Equal entries are not always repeated.
Key:
CytC [1] = target: T1, CytC (Homo sapiens, UniProt P99999); assay: Binding kinetics of the CytC aptasensor (temporal response, flow injection analysis)
T1 construct: purchased RayBiotech Life, Inc (GA, USA)
Excerpt: Binding kinetics of the CytC aptasensor. The binding kinetics of aptamer-protein complexes were further evaluated. […] Next, the monomolecular dissociation rate constant (koff) was computed. The aptasensor platform was adapted for flow injection analysis under constant flow. The sensor platform was modified to incorporate an inlet and outlet loop injection system. With this setup, the different phases of aptamer-target interaction were able to be measured, including association, dissociation, and equilibrium. […] Initially, the aptamer remained unbound in the absence of the target, producing baseline levels of current. The introduction of the target initiated the association phase, which led to the occupation of aptamer binding sites. This phase continued until a steady-state or equilibrium point was attained. Subsequently, the semi-automated target removal initiated the dissociation phase of the aptamer-target complex. The continuous flow of the medium enabled the aptasensor to recover eventually, gradually returning to the baseline levels within approximately 12 hrs.
Modify sensor platform to become injection analysis platform for characterization of binding kinetics. The existing platform was modified by introducing an additional PMMA layer to establish channels and the well layer altered to create a sealed chamber for flow injection. The PMMA layer (0.3 mm thick) was lined with 3M300LSE adhesive before being precisely cut using a CO2 laser. The culture medium was injected through tubing (Tygona, Cole-Parmer, IL, USA) connected to the injector loop at a 2.5 mL/min flow rate using a Fusion 200 syringe pump (Chemyx, Inc, TX, USA). Following a 5-minute equilibration period during which the sensors were exposed to continuous medium flow, CytC was introduced into the flow as the target compound.

CytC [2] = target: T1, CytC; assay: CytC aptasensor calibration curve by square wave voltammetry; type: binding
Excerpt: (§1) Characterization of the electrochemical aptamer-based sensor. An electrochemical sensor with a modified aptamer that recognizes CytC was developed, enabling real-time monitoring of CytC increases in the supernatant due to cell death in cuboids during drug screening. The aptamer sequences were modified with a redox-active molecule, methylene blue (MB), at the distal end of the aptamer. As shown at FIG. 2A, the binding of the CytC target induces a rapid and reversible conformational change in the aptamer, increasing the electron transfer (eT) rate between the MB reporter and the WE surface. This change in eT results in a measurable variation in redox current, easily detectable using square wave voltammetry (SWV). Changes in peak current height were monitored, which correlates with the proximity of the MB redox tag to the electrode. The performance of the aptasensors in response to varying concentrations of CytC (ranging from 1 to 30,000 ng/mL) is presented at FIG. 2B. At a recording frequency of 50 Hz, the peak current height of the sensors decreases as the CytC concentration increases.
Electrochemical signal measurement. All the electrochemical measurements were performed using a Digi-Ivy potentiostat (DY-2219, Digi-Ivy, Austin, TX, USA). For the SWV measurements, the sensors were integrated from 0.0 to −0.5 V (versus Ag/AgCl) with 40-mV amplitude and a voltage increment of 1 mV suitable frequency setting (ranging from 10 Hz to 1,000 Hz). A conventional three-electrode cell was used in electrodeposition, Ag/AgCl with 3M KCl as reference electrode, and platinum wire (0.05 mm diameter, Alfa Aesar, MA, USA) as counter electrode.
Quantitative analysis and characterization of the Cyt C aptamer sensor. The CytC sensors were characterized in cultured medium DMEM-F12-10% FBS with spiked human CytC recombinant (reconstituted in PBS). The SWV measurement for aptasensors was scanned from −0.5 V to 0 V with 40-mV amplitude and a step potential of 1 mV. The frequency is 50 Hz and 1,000 Hz.

CytC [3] = target: T1, CytC; assay: Selectivity of the CytC aptasensor against interferents and drugs; type: binding
Description: Selectivity of the CytC aptasensor. Selectivity is a factor for the practical application of these sensors in tumor-on-a-chip models for drug screening. To assess the selectivity of the sensors, experiments were conducted in which the sensor's responses to CytC (100 ng/mL) vs. responses in the presence of other potentially interfering molecules (also at 100 ng/mL) were measured. Measurements were performed in a growth medium at 50 Hz.
Ex-vivo monitoring of CytC from microdissected tumor tissues after drug treatment in culture using the aptasensor platform. The sensor platform's ability to quantify CytC secretion from cuboids was evaluated at different time points during an extended culture period (48 hrs). Cuboids from human U87 glioma cell-derived tumors grown in athymic nude mice were prepared. […] Next, the sensor platform's ability to measure CytC secretion from cuboids in response to exposure to cytotoxic drugs was evaluated. Initially, the baseline signal was measured with the encapsulated cuboids on the WE before exposing U87 cuboids to different concentrations of cisplatin (a cytotoxic chemotherapy drug, FIG. 5C), sepantronium bromide, (YM-155, a survivin inhibitor and potential anti-cancer drug, FIG. 5D), and mocetinostat (MOC, a histone deacetylases inhibitor cancer drug, FIG. 5E) for 48 hrs. […]

[4] = tested on: U87 glioma xenograft cuboids; assay: Terminal SYTOX green dead stain fluorescence of cuboids; type: cell-based; details: 48 hrs
[5] = tested on: U87 glioma xenograft cuboids; assay: On-device aptasensor monitoring of CytC secretion from drug-treated cuboids; type: cell-based; details: for CytC level vs control: 12 to 48 hrs
Description: Ex-vivo monitoring of CytC from microdissected tumor tissues after drug treatment in culture using the aptasensor platform. The sensor platform's ability to quantify CytC secretion from cuboids was evaluated at different time points during an extended culture period (48 hrs). Cuboids from human U87 glioma cell-derived tumors grown in athymic nude mice were prepared. After overnight culture in a 96-well plate to allow recovery from tissue damage due to the cutting procedure, the cuboids were transferred onto the sensor platform for measurement. To prevent random adhesion of the cuboids to the sensor surface and improve the precise localization of CytC secretion detection, the cuboids were encapsulated in a hydrogel. They were mixed with hydrogel before transferring onto the sensors and immobilizing them to a restricted area just above the working electrode (FIGS. 5A-5B). […] Encapsulation of cells in hydrogels in close proximity to the WE also generates a more localized and distinguishable electrochemical response. Hydrogels can be used as a protective layer to ensure the long-term stability of aptasensors. A polysaccharide hydrogel (Cellink, Bioink, Boston, USA) that contains nanofibrillar cellulose and sodium alginate was used. […] It was also observed that the performance of the sensors remained unhindered regardless of the hydrogel concentration, apart from an extension of the reaction time to approximately 30 min. […] Next, the sensor platform's ability to measure CytC secretion from cuboids in response to exposure to cytotoxic drugs was evaluated. Initially, the baseline signal was measured with the encapsulated cuboids on the WE before exposing U87 cuboids to different concentrations of cisplatin (a cytotoxic chemotherapy drug, FIG. 5C), sepantronium bromide, (YM-155, a survivin inhibitor and potential anti-cancer drug, FIG. 5D), and mocetinostat (MOC, a histone deacetylases inhibitor cancer drug, FIG. 5E) for 48 hrs. […] These observations were consistent with fluorescence-based findings and agreed with the sensor-based responses. […]

Cytochrome c (CytC) = Cytochrome c (CytC) (Homo sapiens, UniProt P99999 P99999:2-105); assay: apparent KD, electrochemical aptamer sensor on Au, square wave voltammetry 50 Hz, Langmuir-Hill fit; text also prints 515±130 μM (6.19 ng/mL corresponds to abou); details: tags: RayBiotech Life recombinant human cytochrome c; label: 3' methylene blue
Excerpt: as §1

T1 sequence (P99999 whole entry): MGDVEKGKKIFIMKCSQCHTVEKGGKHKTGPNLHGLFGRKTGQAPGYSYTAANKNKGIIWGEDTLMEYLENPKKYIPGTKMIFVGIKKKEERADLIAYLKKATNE
Sequence of Cytochrome c (CytC) (P99999 2-105, one chain of several): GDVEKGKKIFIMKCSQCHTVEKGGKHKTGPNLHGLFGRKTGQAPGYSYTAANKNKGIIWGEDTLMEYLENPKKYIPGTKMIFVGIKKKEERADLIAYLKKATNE

5′-/ThioMC6-D/CC GTGTCTGGGGCCGACCGGCGCATTGGGTACGTTGTTGC/AmMO/-3′ (DNA CCGTGTCTGGGGCCGACCGGCGCATTGGGTACGTTGTTGC; chemistry not fully specified) [CytC aptasensor, DNA aptamer recognizing cytochrome C, modified with methylene blue redox reporter, immobilized on gold working electrode]
time to return to baseline (dissociation) (CytC [1]): 12 h | response time to target (CytC [1]; after addition of 1,000 ng/ml CytC, SWV 50 Hz): ≤ 100 s | time to return to baseline levels (dissociation) (CytC [1]; continuous flow of medium after target removal): approximately 12 hrs | detectable relevant concentrations (CytC [2]; 50 Hz): up to 3.32 μM | dynamic range (CytC [2]; 50 Hz): up to 39,580 ng/mL | apparent dissociation constant, KD (CytC [2]; calibration curve at 50 Hz, nonlinear regression fit to Langmuir-Hill isotherm): 6.19 ± 1.57 ng/mL and ~6 ng/mL | signal gain for CytC vs interfering molecules (CytC [3]; CytC 100 ng/mL vs FGF, EGF, IL-2, BSA at 100 ng/mL, growth medium, 50 Hz): higher signal gain | signal gain for CytC vs drugs used for treatment (CytC [3]; CytC 100 and 2000 ng/mL vs DMSO, MOC, FOLFOX, Cisplatin, Staurosporine, YM-155, culture medium, 50 Hz, 1,000 Hz, KDM): higher signal gain

N.N.[Cl][Pt][Cl] [cisplatin]
SG dead stain fluorescence vs control ([4]; 30 μM cisplatin): higher SG dead stain fluorescence | SG dead stain fluorescence vs control ([4]; 100 μM cisplatin): higher SG dead stain fluorescence | CytC level vs control ([5]; 30 μM cisplatin): higher CytC level compared to the control | CytC level vs control ([5]; 100 μM cisplatin): highest levels of CytC

Nc1ccccc1NC(=O)c1ccc(CNc2nccc(-c3cccnc3)n2)cc1 [MOC, mocetinostat]
SG dead stain fluorescence vs DMSO control ([4]; 10 μM MOC): slightly elevated SG dead stain fluorescence | CytC production rate vs DMSO control ([5]; 10 μM MOC, 48 hrs, not statistically significant): higher average CytC production rate than the DMSO control

B1: CytC aptamer (SEQ ID NO:1) (ssDNA)
DNA: CCGTGTCTGGGGCCGACCGGCGCATTGGGTACGTTGTTGC
modifications: 5' ThioMC6-D (disulfide C6 thiol, attached to gold electrode); 3' amino modifier conjugated to methylene blue
binding result (Cytochrome c (CytC)): binds
